In ChEMBL document CHEMBL3132769, “Fragment growing to retain or alter the selectivity of anchored kinase hinge-binding fragments” (Medchemcomm, 2014):

Assays:
[1] = biological target: MAP kinase-activated protein kinase 2 (Homo sapiens) (UniProt P49137); experiment: Inhibition of human full length MAPKAPK2 expressed in baculovirus assessed as substrate phosphorylation using fluorescence-labelled peptides as substrate at 0.06 uM after 90 mins by microfluidic peptide phosphorylation assay
[2] = biological target: Casein kinase I isoform alpha (Homo sapiens) (UniProt P48729); experiment: Inhibition of human full length CSNK1A1 expressed in baculovirus assessed as substrate phosphorylation using fluorescence-labelled peptides as substrate at 0.2 uM after 90 mins by microfluidic peptide phosphorylation assay
Sequence of Casein kinase I isoform alpha (Homo sapiens) (P48729 2-337 limits assumed): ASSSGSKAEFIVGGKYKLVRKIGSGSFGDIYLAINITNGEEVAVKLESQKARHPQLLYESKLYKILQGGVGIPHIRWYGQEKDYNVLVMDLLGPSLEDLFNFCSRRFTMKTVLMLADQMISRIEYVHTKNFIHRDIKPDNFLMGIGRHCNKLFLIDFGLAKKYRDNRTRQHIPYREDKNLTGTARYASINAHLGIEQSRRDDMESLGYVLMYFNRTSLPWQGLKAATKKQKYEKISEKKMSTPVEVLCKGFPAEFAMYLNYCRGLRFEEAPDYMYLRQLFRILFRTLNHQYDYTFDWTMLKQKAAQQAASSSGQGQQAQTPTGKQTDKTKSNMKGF

[3] = biological target: Ribosomal protein S6 kinase alpha-2 (Homo sapiens) (UniProt Q15349); experiment: Inhibition of human full length RSK3 expressed in baculovirus assessed as substrate phosphorylation using fluorescence-labelled peptides as substrate at 0.2 uM after 90 mins by microfluidic peptide phosphorylation assay
Sequence of Ribosomal protein S6 kinase alpha-2 (Homo sapiens) (Q15349 whole entry): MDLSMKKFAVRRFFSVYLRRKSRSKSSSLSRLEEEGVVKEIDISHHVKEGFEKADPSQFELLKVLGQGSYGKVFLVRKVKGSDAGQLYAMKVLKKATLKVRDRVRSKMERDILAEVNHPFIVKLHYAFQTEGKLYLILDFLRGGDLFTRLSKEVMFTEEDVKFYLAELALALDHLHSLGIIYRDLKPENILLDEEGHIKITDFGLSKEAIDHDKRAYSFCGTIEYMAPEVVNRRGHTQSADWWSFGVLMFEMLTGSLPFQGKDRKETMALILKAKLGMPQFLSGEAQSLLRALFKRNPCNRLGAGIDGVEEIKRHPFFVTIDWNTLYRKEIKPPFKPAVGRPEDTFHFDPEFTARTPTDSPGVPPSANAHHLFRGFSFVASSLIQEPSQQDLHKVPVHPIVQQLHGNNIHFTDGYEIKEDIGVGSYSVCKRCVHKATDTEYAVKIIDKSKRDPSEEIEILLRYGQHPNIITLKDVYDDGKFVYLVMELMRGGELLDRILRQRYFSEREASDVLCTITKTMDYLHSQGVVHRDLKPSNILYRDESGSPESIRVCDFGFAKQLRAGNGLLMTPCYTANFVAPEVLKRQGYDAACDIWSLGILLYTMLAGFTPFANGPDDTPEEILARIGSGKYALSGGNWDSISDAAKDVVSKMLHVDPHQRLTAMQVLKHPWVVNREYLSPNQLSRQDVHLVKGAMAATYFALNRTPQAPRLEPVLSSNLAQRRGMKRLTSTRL

[4] = biological target: T1, Testis-specific serine/threonine-protein kinase 2 (Homo sapiens) (UniProt Q96PF2); experiment: Inhibition of human full length TSSK2 expressed in baculovirus assessed as substrate phosphorylation using fluorescence-labelled peptides as substrate at 0.2 uM after 90 mins by microfluidic peptide phosphorylation assay
T1 sequence (whole entry): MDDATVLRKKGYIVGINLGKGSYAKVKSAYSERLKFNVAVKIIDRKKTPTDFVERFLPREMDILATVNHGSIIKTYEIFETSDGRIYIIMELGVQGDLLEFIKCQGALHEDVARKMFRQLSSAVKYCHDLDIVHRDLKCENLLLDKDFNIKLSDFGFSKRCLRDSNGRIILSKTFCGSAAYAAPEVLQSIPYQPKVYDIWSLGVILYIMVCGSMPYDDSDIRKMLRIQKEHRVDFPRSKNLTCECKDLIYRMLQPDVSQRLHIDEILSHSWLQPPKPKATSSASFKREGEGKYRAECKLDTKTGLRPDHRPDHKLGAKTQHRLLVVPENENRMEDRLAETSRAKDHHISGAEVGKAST

[5] = biological target: T2, Serine/threonine-protein kinase Sgk1 (Homo sapiens) (UniProt O00141); experiment: Inhibition of human truncated SGK1 expressed in baculovirus assessed as substrate phosphorylation using fluorescence-labelled peptides as substrate at […] after 90 mins by microfluidic peptide phosphorylation assay
T2 sequence (whole entry): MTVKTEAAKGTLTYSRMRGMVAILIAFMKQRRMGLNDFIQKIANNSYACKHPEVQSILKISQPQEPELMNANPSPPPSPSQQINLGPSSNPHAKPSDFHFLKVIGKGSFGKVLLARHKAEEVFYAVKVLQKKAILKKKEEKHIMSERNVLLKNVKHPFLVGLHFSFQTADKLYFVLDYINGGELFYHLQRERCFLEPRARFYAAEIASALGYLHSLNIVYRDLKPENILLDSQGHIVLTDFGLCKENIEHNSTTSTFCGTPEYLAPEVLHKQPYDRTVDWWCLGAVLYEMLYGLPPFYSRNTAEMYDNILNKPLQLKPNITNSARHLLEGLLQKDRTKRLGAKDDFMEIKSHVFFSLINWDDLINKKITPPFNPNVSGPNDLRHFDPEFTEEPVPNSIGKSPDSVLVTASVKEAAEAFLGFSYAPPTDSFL

[6] = tested on: Tyrosine-protein kinase ABL1 (Homo sapiens), P00519 [H396P]; experiment: Inhibition of human truncated ABL H396P mutant expressed in baculovirus assessed as substrate phosphorylation using fluorescence-labelled peptides as substrate at 0.1 uM after 90 mins by microfluidic peptide phosphorylation assay
[7] = biological target: T3, Calcium/calmodulin-dependent protein kinase type IV (Homo sapiens) (UniProt Q16566); experiment: Inhibition of human full length CAMK4 expressed in baculovirus assessed as substrate phosphorylation using fluorescence-labelled peptides as substrate at 0.1 uM after 90 mins by microfluidic peptide phosphorylation assay
T3 sequence (whole entry): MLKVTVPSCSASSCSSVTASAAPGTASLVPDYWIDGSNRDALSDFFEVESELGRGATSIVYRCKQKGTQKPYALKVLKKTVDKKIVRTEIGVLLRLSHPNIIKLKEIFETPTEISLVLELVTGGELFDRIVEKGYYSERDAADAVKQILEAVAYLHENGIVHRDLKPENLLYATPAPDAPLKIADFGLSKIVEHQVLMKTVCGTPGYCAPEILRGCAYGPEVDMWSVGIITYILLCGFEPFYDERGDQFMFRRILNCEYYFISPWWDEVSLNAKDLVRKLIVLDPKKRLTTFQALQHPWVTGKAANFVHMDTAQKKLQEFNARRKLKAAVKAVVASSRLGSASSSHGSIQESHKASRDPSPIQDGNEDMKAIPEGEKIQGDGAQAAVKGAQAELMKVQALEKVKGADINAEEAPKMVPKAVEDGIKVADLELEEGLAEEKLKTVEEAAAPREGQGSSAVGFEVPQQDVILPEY

[8] = biological target: T4, Protein kinase C zeta type (Homo sapiens) (UniProt Q05513); experiment: Inhibition of human full length PKC zeta expressed in baculovirus assessed as substrate phosphorylation using fluorescence-labelled peptides as substrate at 0.1 uM after 90 mins by microfluidic peptide phosphorylation assay
T4 sequence (whole entry): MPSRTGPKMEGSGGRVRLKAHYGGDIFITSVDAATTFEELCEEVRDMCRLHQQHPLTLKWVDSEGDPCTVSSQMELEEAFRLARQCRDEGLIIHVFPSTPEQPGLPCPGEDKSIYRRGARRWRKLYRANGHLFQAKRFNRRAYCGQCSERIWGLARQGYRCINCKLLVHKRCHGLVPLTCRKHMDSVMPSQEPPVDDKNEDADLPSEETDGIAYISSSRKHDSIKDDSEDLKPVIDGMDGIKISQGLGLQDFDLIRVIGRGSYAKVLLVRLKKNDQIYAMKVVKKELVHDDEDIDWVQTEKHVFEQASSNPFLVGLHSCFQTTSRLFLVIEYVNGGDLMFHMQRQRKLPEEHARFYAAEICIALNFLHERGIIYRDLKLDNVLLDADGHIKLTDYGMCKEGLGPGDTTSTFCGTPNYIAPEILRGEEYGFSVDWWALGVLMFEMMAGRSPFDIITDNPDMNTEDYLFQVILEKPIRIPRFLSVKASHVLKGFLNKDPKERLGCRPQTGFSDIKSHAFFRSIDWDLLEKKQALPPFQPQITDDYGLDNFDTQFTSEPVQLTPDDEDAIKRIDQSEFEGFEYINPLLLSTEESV

[9] = biological target: Platelet-derived growth factor receptor alpha (Homo sapiens) (UniProt P16234); experiment: Inhibition of human PDGFR alpha catalytic domain expressed in baculovirus assessed as substrate phosphorylation using fluorescence-labelled peptides as substrate at 70 uM after 90 mins by microfluidic peptide phosphorylation assay
Sequence of Platelet-derived growth factor receptor alpha (Homo sapiens) (P16234 whole entry, the tested form may be a part): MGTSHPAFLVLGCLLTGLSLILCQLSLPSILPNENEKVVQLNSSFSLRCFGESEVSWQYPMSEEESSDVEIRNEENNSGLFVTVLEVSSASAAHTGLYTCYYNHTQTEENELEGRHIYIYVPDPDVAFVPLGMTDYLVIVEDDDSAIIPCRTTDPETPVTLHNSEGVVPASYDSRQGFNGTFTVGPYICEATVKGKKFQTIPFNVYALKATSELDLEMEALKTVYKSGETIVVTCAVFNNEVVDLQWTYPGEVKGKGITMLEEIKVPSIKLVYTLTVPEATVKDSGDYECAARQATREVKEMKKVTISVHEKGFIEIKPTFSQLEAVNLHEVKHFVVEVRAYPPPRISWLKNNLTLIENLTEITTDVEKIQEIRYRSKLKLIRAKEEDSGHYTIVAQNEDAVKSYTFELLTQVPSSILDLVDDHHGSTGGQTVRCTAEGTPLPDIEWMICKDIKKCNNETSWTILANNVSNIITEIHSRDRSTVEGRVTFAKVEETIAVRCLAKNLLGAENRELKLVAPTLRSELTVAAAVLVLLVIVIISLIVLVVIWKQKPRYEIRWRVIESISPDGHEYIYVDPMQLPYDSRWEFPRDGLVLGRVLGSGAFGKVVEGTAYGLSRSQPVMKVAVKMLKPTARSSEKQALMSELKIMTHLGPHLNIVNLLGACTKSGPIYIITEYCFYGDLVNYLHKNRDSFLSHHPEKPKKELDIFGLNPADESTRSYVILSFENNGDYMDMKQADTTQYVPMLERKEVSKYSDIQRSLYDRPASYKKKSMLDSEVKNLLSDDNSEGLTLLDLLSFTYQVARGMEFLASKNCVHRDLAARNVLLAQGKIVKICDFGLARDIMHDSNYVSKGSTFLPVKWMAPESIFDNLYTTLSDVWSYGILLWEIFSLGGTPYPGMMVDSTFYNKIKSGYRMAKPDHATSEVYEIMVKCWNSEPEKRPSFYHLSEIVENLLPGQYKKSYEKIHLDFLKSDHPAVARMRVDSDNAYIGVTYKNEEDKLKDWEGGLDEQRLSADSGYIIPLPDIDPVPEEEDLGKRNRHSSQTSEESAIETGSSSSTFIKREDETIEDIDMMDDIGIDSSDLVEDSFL

[10] = biological target: Serine/threonine-protein kinase PAK 2 (Homo sapiens) (UniProt Q13177); experiment: Inhibition of human truncated PAK2 expressed in Escherichia coli cell assessed as substrate phosphorylation using fluorescence-labelled peptides as substrate at 95 uM after 90 mins by microfluidic peptide phosphorylation assay
Sequence of Serine/threonine-protein kinase PAK 2 (Homo sapiens) (Q13177 whole entry, the tested form may be a part): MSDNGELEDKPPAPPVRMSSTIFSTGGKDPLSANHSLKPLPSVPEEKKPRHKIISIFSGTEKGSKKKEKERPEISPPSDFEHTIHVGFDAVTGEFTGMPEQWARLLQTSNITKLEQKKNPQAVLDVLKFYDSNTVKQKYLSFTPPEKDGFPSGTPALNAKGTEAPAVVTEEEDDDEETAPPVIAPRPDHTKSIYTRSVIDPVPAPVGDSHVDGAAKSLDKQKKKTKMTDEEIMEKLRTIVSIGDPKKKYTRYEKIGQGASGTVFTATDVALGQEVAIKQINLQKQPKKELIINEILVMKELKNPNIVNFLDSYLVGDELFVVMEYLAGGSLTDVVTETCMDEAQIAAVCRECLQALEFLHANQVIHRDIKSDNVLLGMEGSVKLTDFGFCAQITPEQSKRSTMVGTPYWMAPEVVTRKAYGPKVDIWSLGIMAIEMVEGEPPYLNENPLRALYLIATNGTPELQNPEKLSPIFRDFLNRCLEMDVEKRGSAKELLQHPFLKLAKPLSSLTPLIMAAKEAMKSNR

Sequence of MAP kinase-activated protein kinase 2 (Homo sapiens) (P49137 whole entry, looked up, canonical isoform): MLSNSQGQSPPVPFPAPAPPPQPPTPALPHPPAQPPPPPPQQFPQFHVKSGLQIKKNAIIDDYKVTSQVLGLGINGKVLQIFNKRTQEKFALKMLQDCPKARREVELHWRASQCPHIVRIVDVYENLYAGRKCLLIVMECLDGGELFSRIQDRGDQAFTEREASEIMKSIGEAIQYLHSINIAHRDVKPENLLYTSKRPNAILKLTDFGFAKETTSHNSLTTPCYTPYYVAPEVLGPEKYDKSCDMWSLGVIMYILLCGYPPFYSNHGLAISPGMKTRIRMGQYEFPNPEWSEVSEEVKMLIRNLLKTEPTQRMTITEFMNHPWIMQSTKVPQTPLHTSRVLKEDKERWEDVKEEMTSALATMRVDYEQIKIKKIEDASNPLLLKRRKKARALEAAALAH

Work on `NC1(Cc2ccc(Cl)cc2)CCN(c2ncnc3[nH]ccc23)CC1` yielded an inhibition [1] of 0%.

`Clc1ccc(C2(c3ccc(-c4ncnc5[nH]cnc45)cc3)CCNCC2)cc1` showed an inhibition [2] of 4%, an inhibition [3] of 40% and an inhibition [4] of 7%.

For `COC(=O)c1cnc(Nc2cnc(C#N)cn2)cc1NCC1CCNCC1`, the inhibition [5] was 4.5%.

Compound `C[C@H](CN(C)C)Oc1nc(Nc2cc3cccc(Cl)c3cn2)cnc1C#N` has an inhibition [6] of 1.5%, an inhibition [7] of 3.5% and an inhibition [8] of 19%.

`CNCc1ccc(-c2ncnc3[nH]cnc23)cc1` gave an inhibition [9] of 16.5%.

With `NCCc1ccc(-c2ncnc3[nH]cnc23)cc1` the inhibition [10] was 57.5%.
